Assay results taken from paper PMC5462101 (Future medicinal chemistry, 2015).
“And” between values parts separate entries of the source, which are not always exact repeats. Identical values can stand only once.

Tests used:
soybean lipoxygenase = target: T1, soybean lipoxygenase (Glycine max, UniProt P08170); assay: Inhibition of soybean lipoxygenase; assay type: biochemical; conditions: sodium linoleate 0.1 mM, read-out: Lipoxygenase inhibitory activity (IC50)
T1 construct: purchased Sigma
T1 sequence (P08170 1-839): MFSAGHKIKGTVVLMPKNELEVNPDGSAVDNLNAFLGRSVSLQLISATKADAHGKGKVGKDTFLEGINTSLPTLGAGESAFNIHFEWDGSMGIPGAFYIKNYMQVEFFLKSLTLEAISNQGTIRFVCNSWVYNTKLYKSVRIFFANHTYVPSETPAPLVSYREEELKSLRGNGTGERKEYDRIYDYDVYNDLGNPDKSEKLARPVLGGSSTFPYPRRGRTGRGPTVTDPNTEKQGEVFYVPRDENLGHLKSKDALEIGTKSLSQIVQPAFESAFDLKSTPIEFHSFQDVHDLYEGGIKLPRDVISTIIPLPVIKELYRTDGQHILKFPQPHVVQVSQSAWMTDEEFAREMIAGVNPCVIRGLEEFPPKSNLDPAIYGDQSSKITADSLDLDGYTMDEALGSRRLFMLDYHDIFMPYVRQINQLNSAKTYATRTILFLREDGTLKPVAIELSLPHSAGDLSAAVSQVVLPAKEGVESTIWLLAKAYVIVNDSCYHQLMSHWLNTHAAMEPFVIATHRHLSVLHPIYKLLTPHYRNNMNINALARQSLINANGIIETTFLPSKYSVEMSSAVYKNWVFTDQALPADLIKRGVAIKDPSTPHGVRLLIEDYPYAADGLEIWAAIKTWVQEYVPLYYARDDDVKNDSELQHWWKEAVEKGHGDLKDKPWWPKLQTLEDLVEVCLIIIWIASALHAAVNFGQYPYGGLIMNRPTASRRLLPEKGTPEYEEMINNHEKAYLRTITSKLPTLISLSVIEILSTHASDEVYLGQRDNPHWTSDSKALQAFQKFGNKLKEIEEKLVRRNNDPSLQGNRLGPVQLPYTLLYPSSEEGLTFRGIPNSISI
Protocol: The substituted pteridines prepared were assayed for inhibition of soybean lipoxygenase (Table 1) (Supplementary Information). Many studies have used readily obtainable soybean lipoxygenase, which is a homologue of mammalian lipoxygenase and well examined. The availability of soybean LOX and its well-characterized crystal structure led to its use in this study.
Determination of soybean lipoxygenase inhibition
A solution in DMSO of each compound to be tested was incubated at room temperature with sodium linoleate (0.1 mM) and a solution of soybean lipoxygenase (EC 1.13.11.12) (1:9 x 10^4 w/v in saline, 0.2 mL, Sigma). The conversion of sodium linoleate to 13-hydroperoxylinoleic acid was monitored by observation at 234 nm and compared with the value of appropriate standard inhibitor (Table 1).
IC50 determinations. OriginPro 8 was used to determine IC50 values from the sigmoidal line fitted to a graph of log[concentration] against the average percentage inhibition from two independent experiments, with at least 6 different concentrations. The SEM is the calculated standard error in the IC50 value of the fitted line.

[1] = Reducing ability in DPPH assay; conditions: compound 100 μM
Protocol: Previous work has shown that pterins, their dihydro- and their tetrahydro-derivatives can each be antioxidants or pro-oxidants, depending on the particular conditions. In the present study, several assays were used to assess in vitro antioxidant activity in order to obtain representative information; each method involves the generation of a different radical.
Determination of reducing activity using 1,1-diphenyl-2-picrylhydrazyl radical (DPPH)
To a solution of DPPH in absolute ethanol was added an equal volume of the compound to be tested dissolved in DMSO (20 µL). From a stock solution (10 mM) was prepared a final solution of 100 µM for evaluation of the compounds. The absorbance at 517 nm was recorded after 20 and 60 min at room temperature (Table 2).

[2] = test system: carrageenin-induced rat paw edema; assay: Inhibition of carrageenin-induced rat paw edema; assay type: in vivo, Fisher 344 rats
Protocol: The incipient pattern of this edema is characterized by the effects of histamine and 5-hydroxytryptamine. After 1 h, reduction of edema in the rat paw achieved by the pteridine 18f was appreciably greater than the reduction induced by the reference compound indomethacin, a nonselective COX-inhibitor and commonly used nonsteroidal anti-inflammatory drug. Thus, 18f and some related pteridines offer significant protection against reactive oxygen species produced in a model of colitis, probably on account of their properties as antioxidants and radical scavengers.
Fisher 344 rats (150-200 g) were housed in wire-mesh cages, given standard laboratory chow and tap water ad libitum and acclimatized for one week before experiments. Rats were randomly assigned to experimental groups. All in vivo experiments conform to the law for the protection of experimental animals (Republic of Greece) and are registered at the Veterinary Administration of the Republic of Greece in accordance with recognized guidelines on animal experimentation including Directive 2010/63/EU.
Inhibition of carrageenin-induced edema
Edema was induced in the right hind paw of Fisher 344 rats (150-200 g) by intradermal injection of aqueous carrageenin (0.1 mL, 2%). Pregnant females were excluded from the study, but both sexes were used. Each group comprised 6-15 rats which were bred and housed under standard conditions and received a diet of commercial food pellets and water ad libitum during maintenance but were entirely fasted during the experiment period. Each compound (0.01 mmol/kg body weight) was suspended in water to which had been added a few drops of Tween 80 and then the mixture was ground in a mortar prior to being administered intraperitoneally and simultaneously with the carrageenin injection. Rats were euthanized 1 h after injection, and the difference between the weight of the injected and non-injected paws was calculated for each animal. The change in paw weight was compared with that in control animals (treated with water) and the inhibition of the edema was expressed as a percentage (Table 4). […]

- IC50 (soybean lipoxygenase): 55 ± 0.8 µM
Compound: CN1CCN(c2nc(NCc3cccs3)c3nccnc3n2)CC1 [Compound 18f, 2-(4-methylpiperazin-1-yl)-N-(thiophen-2-ylmethyl)pteridin-4-amine]
- RA (%) 100μM 20 min ([1]; 20 min): 6%
- RA (%) 100μM 60 min ([1]; 60 min): 4%
- Greater reduction of edema in rat paw than indomethacin ([2]; 0.01 mmol/kg, relative to indomethacin): 60%
- Reduction of rat paw edema after 1 h (%) ([2]; rat, 0.01 mmol/kg intraperitoneally, 1 h, mean of two experiments): 41% and 41 ^† %
